A short description of data set [1]: Cell-free, liposome-based assay of lipid peroxidation (STY-BODIPY). It is filed as biochemical. To be noted: test compounds 10 μM. How it is done: For the cell-free, liposome-based assay, STY-BODIPY (1.5 μM) and liposomes of egg-PC (1 mM) (Avanti Polar Lipids Inc, Cat #840051P, AL) in TBS (pH 7.4) were added to an opaque 96-well plate. This was followed by the addition of test compounds (10 μM). The plate was incubated for 30 min at 37° C. and then vigorously mixed for 5 min. The autoxidation was initiated by the addition of V-70 (0.5 mM) (Fujifilm Wako, Cat #001-70078, Japan), followed by additional mixing for 5 min. Data were acquired at Ex/Em=488/518 nm every 15 min at 37° C. on a SpectraMax M5 microplate reader. Data were transformed into [ox-STY-BODIPY] by taking the raw fluorescent values of the saturated curve of control DMSO and dividing them by the initial concentration of reduced STY-BODIPY ([…]). Samples were analyzed in quadruplicate in four independent experiments (n=4).

Data set [2] deals with HT22 mt-GFP/mCherry-Parkin cells. In words: Cell viability after RSL3 with/without FCCP (CyQUANT DNA-based assay, fluorescence microscopy), mt-GFP/mCherry-Parkin cells. Also noted: species or system mouse. The settings on record: for protection against RSL3-induced cell death, no FCCP pretreatment: 16 hr; for protection against RSL3 after FCCP pretreatment (mitochondria-depleted cells): FCCP 5 μM 24 hr, then 16 hr.

The subject of data set [3] is HT22 cells. In words: Cellular Lipid Peroxidation Measurement (C11-BODIPY). It is filed as cell-based, mouse. As to the method: Lipid Peroxidation MeasurementsHT22 cells were seeded onto 96-well black walled plates at a density of 3,000 cells/well in DMEM supplemented with 10% FBS and 1% antibiotics. After the desired treatments, cells were labeled with 2.5 μM C11-BODIPY 581/591 (oxidized form Ex/Em=488/520 nm) at 37° C. for 2 hr. Experiments were performed according to the manufacturer's instructions. Fluorescence was measured on a SpectraMax M5 microplate reader. Data were normalized for total protein/well. Each condition was analyzed in twelve wells per independent experiment (n=12). Results were presented as the percentage of the controls with vehicle alone. Results were verified by live-cell imaging under a fluorescence microscope.

Data set [4] in a line: Cell viability after RSL3 with/without FCCP (CyQUANT DNA-based assay, fluorescence microscopy), mt-GFP/mCherry-Parkin cells. The arrangement: species or system mouse. The settings on record: mouse, HT22 mt-GFP/mCherry-Parkin cells, FCCP treatment 40 hr, read-out: decrease in cell viability compared to the vehicle control.
Data set [5] in a line: Cell viability after RSL3 with/without FCCP (CyQUANT DNA-based assay, fluorescence microscopy), mt-GFP WT cells. The arrangement: species or system mouse. To be noted: mouse, HT22 mt-GFP WT cells, FCCP treatment 40 hr, read-out: decrease in cell viability compared to the vehicle control.
Data set [6] concerns HT22 cells. In words: Mitochondrial Membrane Potential Assay (JC-10) in HT22 cells. The format is cell-based, mouse. To be noted: 50 nM, 4 hr. As to the method:
Mitochondrial Membrane Potential Assay. Cells seeded at 5,000 cells/well onto 96-well black walled plates were treated with test compounds at the desired concentrations under the culture condition described above. The mitochondrial uncoupler FCCP at 2 μM was used as a reference control. After the desired treatments for 4 hr, the cells were subjected to a JC-10 mitochondrial membrane potential assay according to the manufacturer's instruction. Fluorescence intensities (Ex/Em=490/525 nm, and Ex/Em=540/590 nm) of each well were monitored on a SpectraMax M5 microplate reader. The ratio of fluorescence intensity (590/525 nm) was used to determine the mitochondrial membrane potential (ΔΨm). Decreasing ratios indicate mitochondrial membrane depolarization. Samples were analyzed in eight to sixteen wells per independent experiment (n=8-16). Results were verified by live-cell imaging under a fluorescence microscope.

The subject of data set [7] is HT22 cells. In words: Ferroptosis Assay (RSL3-induced cell death, MTT). It is filed as cell-based, mouse. To be noted: for EC50: Mus musculus, HT-22, HT22 cells, 1 hr pretreatment, 50 nM RSL3, 16 hr, MTT, read-out: Observed EC50 RSL3. How it is done:
Ferroptosis Assay: HT22 cells were seeded at 3,000 cells/well in 96-well tissue culture plates in DMEM plus 10% FBS and 1% antibiotics. After 24 hr of plating, the cells were pretreated with different concentrations of test compounds or a vehicle control for 1 hr followed by coincubation with 50 nM RSL3 to induce the cell death cascade. After 16 hr of treatment, cell viability was measured by the MTT assay. Optical absorbance was measured at 570 nm on a SpectraMax M5 microplate reader. Samples were analyzed in eight to sixteen wells per independent experiment (n=8-16). Results were presented as the percentage of the controls with vehicle alone.

A further data set deals with HT22 mt-GFP WT cells. The data set is described as follows: Cell viability after RSL3 with/without FCCP (CyQUANT DNA-based assay, fluorescence microscopy), mt-GFP WT cells. The arrangement: species or system mouse.
Data set [8] deals with HT22 cells. In words: MitoTracker Assay (mitochondrial mass). The format is cell-based, mouse. The settings on record: 50 nM, vs control cells. As to the method:
MitoTracker Assay. HT22 cells were seeded onto 96-well black walled plates at a density of 5,000 cells/well in DMEM supplemented with 10% FBS and 1% antibiotics. After the desired treatments, MitoTracker Orange CM−H2TMRos (Ex/Em=554/576 nm) and Hoechst 33342 (Ex/Em=360/460 nm) dyes were added to the cells and incubated under the same culture condition for 2 hr. Fluorescence was measured on a SpectraMax M5 microplate reader. Experiments were performed according to the manufacturer's instructions. Data were normalized for total protein/well. Each condition was analyzed in sixteen wells per independent experiment (n=16). Results were presented as the percentage of the controls with vehicle alone. Results were verified by live-cell imaging under a fluorescence microscope.

Data set [9] deals with HT22 cells. The data set is described as follows: Oxytosis/ferroptosis assay with erastin (Table 2). The format is cell-based. To be noted: Mus musculus, HT-22; erastin as inducer; method not given; read-out: Observed EC50 erastin.
The test system of data set [10] is HT22 cells. The data set is described as follows: Oxytosis Assay (glutamate-induced cell death, MTT). To be noted: 5 mM, 16 hr, vs control group. The format is cell-based, mouse. As to the method: Oxytosis Assay. HT22 cells were seeded at 3,000 cells/well in 96-well tissue culture plates in DMEM plus 10% FBS and 1% antibiotics. After 24 hr of plating, the cells were pretreated with different concentrations of the test compounds or a vehicle control for 1 hr followed by coincubation with 5 mM glutamate to initiate the cell death cascade. After 16 hr of treatment, cell viability was measured by the 3−(4,5-dimethylthiazol-2-yl)-2,5-diphenyltetrazolium bromide (MTT) assay. Optical absorbance was measured at 570 nm on a SpectraMax M5 microplate reader. Samples were analyzed in eight to sixteen wells per independent experiment (n=8-16). Results were presented as the percentage of the controls with vehicle alone.

A value given as a limit tells only on which side of the number the result lay.

Broadly, the EC50 is the concentration needed to bring the measured effect to its halfway point.

In the case of `CCOC(=O)c1ccc(NC2CCCCC2)c(N)c1` [ferrostatin], in data set [1], the “inhibition of lipid peroxidation, cell-free” value was “showed a potent effect against lipid peroxidation”. In addition, in [2], the “protection against RSL3-induced cell death, no FCCP pretreatment” value is recorded as “effectively protected” and the “protection against RSL3 after FCCP pretreatment (mitochondria-depleted cells)” value was “rescued”. For the same compound, the “RSL3-induced cellular lipid peroxidation” value with HT22 cells [3] (50 nM RSL3, 16 hr, p<0.0001) was “effectively suppressed”. The “basal cellular lipid peroxidation, compound alone” value in the data set on HT22 cells [3] (CBN 5 μM, ferrostatin 10 μM, 16 hr) was “neither CBN (5 μM) nor ferrostatin (10 μM) alone changed basal levels of lipid peroxidation”.
Turning to `COC1=C(OC)C(=O)C(CCCCCCCCCC[P+](c2ccccc2)(c2ccccc2)c2ccccc2)=C(C)C1=O` [MitoQ], in data set [2], the “protection against RSL3-induced cell death, no FCCP pretreatment” value is given as “effectively protected” and the “protection against RSL3 after FCCP pretreatment (mitochondria-depleted cells)” value is recorded as “showed no cytoprotection”.
On to `N#CC(C#N)=NNc1ccc(OC(F)(F)F)cc1` [FCCP, carbonyl cyanide-4-(trifluoromethoxy)phenylhydrazone, reference compound], for which the cytotoxicity at 40 hr, 5 μM in [4] and in data set [5] was ~40% throughout.
For the compound `COC(=O)c1ccc([C@@H]2c3[nH]c4ccccc4c3C[C@@H](C(=O)OC)N2C(=O)CCl)cc1` [RSL3, reference compound], the “cell viability in FCCP pretreated cells” value (in data set [2]; in the data set with HT22 mt-GFP WT cells) was 10-15% each time. Also, in the data set with HT22 cells [6], the “effect on ΔΨm” value is given as “no impact”. The “cell death by inducer alone” value in the data set with HT22 cells [7] (50 nM, 16 hr, vs control group) is 40-60%. Besides, the “increase of cellular lipid peroxidation level” value in the data set on HT22 cells [3] (50 nM, 16 hr) was “approximately 30%”. In the data set on HT22 cells [8], the “decrease of MitoTracker intensity” value stood at 8.4%.
Take `CCCc1cc(OC(C)=O)c2c(c1)OC(C)(C)c1ccc(C)cc1-2` [CBNV-OAc, 6,6,9-trimethyl-3-propyl-6H-benzo[c]chromen-1-yl acetate]: the figures for the EC50 with HT22 cells [7] and in the data set on HT22 cells [9] were 1600 nM and 4000 nM, respectively.
On the same counts, the results for `CCCCCc1cc(O)c2c(c1)OC(C)(C)C1CC=C(C)CC21` (centres unmarked) [D8-THC, 6,6,9-trimethyl-3-pentyl-6a,7,10,10a-tetrahydro-6H-benzo[c]chromen-1-ol] are 800 nM and 2600 nM.
The like results for `C=C(C)c1ccc(C)cc1-c1c(O)cc(CCCCC)cc1O` [CBND, 2,6-dihydroxy-4-pentyl-2′-isopropenyl-5′-methyl-1,1′-biphenyl] were, in that order, 7700 nM and 15400 nM.
The like results for `CCCCCc1cc(O)c2c(c1)oc1c(C)ccc(C(C)C)c12` [CBF, 5-isopropyl-8-methyl-2-pentyl-9-oxa-4-fluorenol] were, in that order, 150 nM and 310 nM.
In the case of `N[C@@H](CCC(=O)O)C(=O)O` [glutamate, reference compound], in the data set on HT22 cells [10], the “cell death by inducer alone” value is listed as 40-60%.
As for `C=C(C)[C@@H]1CCC(C)=C[C@H]1c1c(O)cc(CCCCC)c(C(=O)O)c1O` [CBDA, (1′R,2′R)-2,6-Dihydroxy-5′-methyl-4-pentyl-2′-(prop-1-en-2-yl)-1′,2′,3′,4′-tetrahydro[1,1′-biphenyl]-3-carboxylic acid], the EC50 was 9300 nM with HT22 cells [7] and > 10000 nM with HT22 cells [9].

The record behind these values is patent US20240261302A1, “METHODS OF TREATING NEURODEGENERATIVE DISEASES OR CONDITIONS” (FloraScience Inc., priority 2023, published 2024).
